Experimental data published in ChEMBL document CHEMBL1201862, “PubChem BioAssay data set” (2004).
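Briefly, cells in 96-well plates were exposed to five compound concentrations for 48 h, and endpoints were estimated by linear interpolation. The concentration for 50% growth inhibition is given as GI50.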 Active and inactive are the calls of the source. No stated cut-off is given here; in the data, active = GI50 up to about 1.1 µM and inactive = higher.

Legend:
Test in all cases: NCI-60 cell line screen, 48 h
[1] = system: 786-0
[2] = system: A498
[3] = system: A549
[4] = system: ACHN
[5] = system: BT-549
[6] = system: CAKI-1
[7] = system: CCRF-CEM
[8] = system: COLO 205
[9] = system: DU-145
[10] = system: EKVX
[11] = system: HCT-116
[12] = system: HCT-15
[13] = system: HL-60
[14] = system: HOP-62
[15] = system: HOP-92
[16] = system: HT-29
[17] = system: Hs-578T
[18] = system: IGROV-1
[19] = system: K562
[20] = system: KM12
[21] = system: LOX IMVI
[22] = system: M14
[23] = system: MCF7
[24] = system: MDA-MB-231
[25] = system: MDA-MB-435
[26] = system: MOLT-4
[27] = system: Malme-3M
[28] = system: NCI-H226
[29] = system: NCI-H23
[30] = system: NCI-H460
[31] = system: NCI-H522
[32] = system: NCI/ADR-RES
[33] = system: OVCAR-3
[34] = system: OVCAR-4
[35] = system: OVCAR-5
[36] = system: OVCAR-8
[37] = system: PC-3
[38] = system: RPMI-8226
[39] = system: RXF 393
[40] = system: SF-268
[41] = system: SF-295
[42] = system: SF-539
[43] = system: SK-MEL-28
[44] = system: SK-MEL-2
[45] = system: SK-MEL-5
[46] = system: SK-OV-3
[47] = system: SN12C
[48] = system: SNB-19
[49] = system: SNB-75
[50] = system: SR
[51] = system: SW-620
[52] = system: T47D
[53] = system: TK-10
[54] = system: U-251
[55] = system: UACC-257
[56] = system: UACC-62
[57] = system: UO-31
[58] = system: HCC 2998
[59] = system: MDA-N

Structure (SMILES): CC(NCCN(C)C)C1CCC2C3CCc4cc(O)ccc4C3CCC12C (stereo not given)
- GI50 [1]: 1.83 µM (inactive)
- GI50 [2]: 4.01 µM (inactive)
- GI50 [3]: 3.65 µM (inactive)
- GI50 [4]: 2 µM (inactive)
- GI50 [5]: 17.4 µM (inactive)
- GI50 [6]: 2.07 µM (inactive)
- GI50 [7]: 0.723 µM (active)
- GI50 [8]: 1.84 µM (inactive)
- GI50 [9]: 6.18 µM (inactive)
- GI50 [10]: 5.19 µM (inactive)
- GI50 [11]: 2.66 µM (inactive)
- GI50 [12]: 2.79 µM
- GI50 [13]: 2.09 µM (inactive)
- GI50 [14]: 3.24 µM (inactive)
- GI50 [15]: 2.81 µM (inactive)
- GI50 [16]: 2.89 µM (inactive)
- GI50 [17]: 4.17 µM (inactive)
- GI50 [18]: 4.97 µM (inactive)
- GI50 [19]: 1.86 µM (inactive)
- GI50 [20]: 3.21 µM (inactive)
- GI50 [21]: 2.03 µM (inactive)
- GI50 [22]: 1.67 µM (inactive)
- GI50 [23]: 2.96 µM (inactive)
- GI50 [24]: 1.97 µM (inactive)
- GI50 [25]: 2.05 µM (inactive)
- GI50 [26]: 1.85 µM (inactive)
- GI50 [27]: 1.68 µM (inactive)
- GI50 [28]: 17.8 µM (inactive)
- GI50 [29]: 4.45 µM (inactive)
- GI50 [30]: 2.2 µM (inactive)
- GI50 [31]: 3.2 µM (inactive)
- GI50 [32]: 2.86 µM (inactive)
- GI50 [33]: 1.88 µM (inactive)
- GI50 [34]: 3.02 µM (inactive)
- GI50 [35]: 5.42 µM (inactive)
- GI50 [36]: 2.79 µM (inactive)
- GI50 [37]: 2.82 µM (inactive)
- GI50 [38]: 2.34 µM (inactive)
- GI50 [39]: 1.85 µM (inactive)
- GI50 [40]: 5.28 µM (inactive)
- GI50 [41]: 2.59 µM (inactive)
- GI50 [42]: 4.76 µM (inactive)
- GI50 [43]: 2.19 µM (inactive)
- GI50 [44]: 1.91 µM (inactive)
- GI50 [45]: 1.71 µM (inactive)
- GI50 [46]: 3.69 µM (inactive)
- GI50 [47]: 2 µM (inactive)
- GI50 [48]: 3.54 µM (inactive)
- GI50 [49]: 3.14 µM (inactive)
- GI50 [50]: 1.44 µM (inactive)
- GI50 [51]: 3.33 µM (inactive)
- GI50 [52]: 2.34 µM (inactive)
- GI50 [53]: 2.72 µM (inactive)
- GI50 [54]: 2.07 µM (inactive)
- GI50 [55]: 2.06 µM (inactive)
- GI50 [56]: 1.93 µM (inactive)
- GI50 [57]: 1.81 µM (inactive)

Structure (SMILES): Fc1cccc(F)c1C1SCc2nc3cc4ccccc4cc3n21 (stereo not given)
- GI50 [1]: 31.2 µM (inactive)
- GI50 [2]: 21.2 µM (inactive)
- GI50 [3]: 33.3 µM (inactive)
- GI50 [5]: 8.71 µM (inactive)
- GI50 [6]: 88.1 µM (inactive)
- GI50 [7]: 22.4 µM (inactive)
- GI50 [8]: 31.2 µM (inactive)
- GI50 [9]: 80.4 µM (inactive)
- GI50 [10]: 54.6 µM (inactive)
- GI50 [58]: 23.9 µM (inactive)
- GI50 [11]: 47 µM (inactive)
- GI50 [12]: 16 µM
- GI50 [14]: 95.9 µM (inactive)
- GI50 [15]: 16.3 µM (inactive)
- GI50 [16]: 20.2 µM (inactive)
- GI50 [18]: 21.7 µM (inactive)
- GI50 [19]: 12.1 µM (inactive)
- GI50 [20]: 34 µM (inactive)
- GI50 [21]: 32.9 µM (inactive)
- GI50 [22]: 29.7 µM (inactive)
- GI50 [23]: 47.2 µM (inactive)
- GI50 [24]: 27.5 µM (inactive)
- GI50 [25]: 49.9 µM (inactive)
- GI50 [59]: 39 µM (inactive)
- GI50 [26]: 15.3 µM (inactive)
- GI50 [27]: 39.2 µM (inactive)
- GI50 [28]: 23.3 µM (inactive)
- GI50 [29]: 52.7 µM (inactive)
- GI50 [32]: > 100 µM (inactive)
- GI50 [33]: 15.7 µM (inactive)
- GI50 [34]: 3.16 µM (inactive)
- GI50 [35]: 64 µM (inactive)
- GI50 [36]: 58.6 µM (inactive)
- GI50 [37]: 23 µM (inactive)
- GI50 [38]: 6.92 µM (inactive)
- GI50 [39]: 28.4 µM (inactive)
- GI50 [40]: 52.2 µM (inactive)
- GI50 [41]: 29.7 µM (inactive)
- GI50 [42]: 17.2 µM (inactive)
- GI50 [43]: 49.7 µM (inactive)
- GI50 [44]: > 100 µM (inactive)
- GI50 [45]: 21.8 µM (inactive)
- GI50 [46]: 91 µM (inactive)
- GI50 [47]: 34.1 µM (inactive)
- GI50 [49]: 20.7 µM (inactive)
- GI50 [50]: 17.5 µM (inactive)
- GI50 [51]: 49 µM (inactive)
- GI50 [52]: 23 µM (inactive)
- GI50 [53]: 96.6 µM (inactive)
- GI50 [54]: 30.7 µM (inactive)
- GI50 [55]: 31.6 µM (inactive)
- GI50 [56]: 23.4 µM (inactive)

Structure (SMILES): NCCCCN(CCCN)C(=O)OCc1ccccc1
- GI50 [1]: > 100 µM (inactive)
- GI50 [2]: > 100 µM (inactive)
- GI50 [3]: > 100 µM (inactive)
- GI50 [4]: > 100 µM (inactive)
- GI50 [5]: > 100 µM (inactive)
- GI50 [6]: > 100 µM (inactive)
- GI50 [7]: > 100 µM (inactive)
- GI50 [8]: > 100 µM (inactive)
- GI50 [9]: > 100 µM (inactive)
- GI50 [10]: > 100 µM (inactive)
- GI50 [58]: > 100 µM (inactive)
- GI50 [11]: > 100 µM (inactive)
- GI50 [12]: > 100 µM
- GI50 [13]: > 100 µM (inactive)
- GI50 [14]: > 100 µM (inactive)
- GI50 [15]: > 100 µM (inactive)
- GI50 [16]: > 100 µM (inactive)
- GI50 [17]: > 100 µM (inactive)
- GI50 [18]: > 100 µM (inactive)
- GI50 [19]: > 100 µM (inactive)
- GI50 [20]: > 100 µM (inactive)
- GI50 [22]: > 100 µM (inactive)
- GI50 [23]: > 100 µM (inactive)
- GI50 [24]: > 100 µM (inactive)
- GI50 [25]: > 100 µM (inactive)
- GI50 [26]: > 100 µM (inactive)
- GI50 [28]: > 100 µM (inactive)
- GI50 [29]: > 100 µM (inactive)
- GI50 [30]: > 100 µM (inactive)
- GI50 [31]: > 100 µM (inactive)
- GI50 [32]: > 100 µM (inactive)
- GI50 [33]: > 100 µM (inactive)
- GI50 [34]: > 100 µM (inactive)
- GI50 [35]: > 100 µM (inactive)
- GI50 [36]: > 100 µM (inactive)
- GI50 [37]: > 100 µM (inactive)
- GI50 [38]: > 100 µM (inactive)
- GI50 [39]: > 100 µM (inactive)
- GI50 [40]: > 100 µM (inactive)
- GI50 [41]: > 100 µM (inactive)
- GI50 [42]: > 100 µM (inactive)
- GI50 [43]: > 100 µM (inactive)
- GI50 [44]: > 100 µM (inactive)
- GI50 [45]: > 100 µM (inactive)
- GI50 [46]: > 100 µM (inactive)
- GI50 [47]: > 100 µM (inactive)
- GI50 [48]: > 100 µM (inactive)
- GI50 [49]: > 100 µM (inactive)
- GI50 [50]: > 100 µM (inactive)
- GI50 [51]: > 100 µM (inactive)
- GI50 [52]: > 100 µM (inactive)
- GI50 [53]: > 100 µM (inactive)
- GI50 [54]: > 100 µM (inactive)
- GI50 [55]: > 100 µM (inactive)
- GI50 [56]: > 100 µM (inactive)
- GI50 [57]: > 100 µM (inactive)
